Reference: ChEMBL document CHEMBL3885881, “DrugMatrix”

Species on record: Rattus norvegicus
Assay: DrugMatrix - Regimen: Daily Repeat
Assay type: toxicity, organism-based, Sprague-Dawley
Parameters: regimen Daily Repeat, gender Male, age 6-8 weeks
Conditions: in vivo, po, route oral GAVAGE, […]; for ABSOLUTE BASOPHIL / ABSOLUTE EOSINOPHIL / ABSOLUTE LYMPHOCYTE / ABSOLUTE MONOCYTE / ABSOLUTE SEGMENTED NEUTROPHIL / BASOPHIL / EOSINOPHIL / ERYTHROCYTE COUNT / HEMATOCRIT / HEMOGLOBIN / LEUKOCYTE COUNT / LYMPHOCYTE / MEAN CORPUSCULAR HEMOGLOBIN / MEAN CORPUSCULAR HEMOGLOBIN CONCENTRATION / MEAN CORPUSCULAR VOLUME / MONOCYTE / NEUTROPHIL / NUCLEATED RED BLOOD CELLS / PLATELET COUNT: tissue Blood; for ALANINE AMINOTRANSFERASE / ALBUMIN / ALKALINE PHOSPHATASE / ASPARTATE AMINOTRANSFERASE / BLOOD UREA NITROGEN / CARBON DIOXIDE / CHLORIDE / CHOLESTEROL / CREATINE PHOSPHOKINASE / CREATININE / GLUCOSE / LACTATE DEHYDROGENASE / LIPASE / PHOSPHORUS / POTASSIUM / SODIUM / TOTAL BILIRUBIN / TOTAL PROTEIN / URIC ACID: tissue Plasma
[1] = 0 mg/kg, 72 h, dose level Control, time 3 day
[2] = 0 mg/kg, dose level Control, time 7 day
[3] = 130 mg/kg, 72 h, dose level Low, time 3 day

CCOC(=O)C(C)(C)Oc1ccc(Cl)cc1 [CLOFIBRATE]
ABSOLUTE BASOPHIL [1]: 0 CELLS/uL
ABSOLUTE EOSINOPHIL [1]: 37.33 CELLS/uL
ABSOLUTE LYMPHOCYTE [1]: 6295.33 CELLS/uL
ABSOLUTE MONOCYTE [1]: 122.17 CELLS/uL
ABSOLUTE SEGMENTED NEUTROPHIL [1]: 861.83 CELLS/uL
BASOPHIL [1]: 0%
EOSINOPHIL [1]: 0.5%
ERYTHROCYTE COUNT [1]: 5.2 x10E6/uL
HEMATOCRIT [1]: 32.58%
HEMOGLOBIN [1]: 12.95 G/DL
LEUKOCYTE COUNT [1]: 7.32 x10E3/uL
LYMPHOCYTE [1]: 86%
MEAN CORPUSCULAR HEMOGLOBIN [1]: 24.93 pg
MEAN CORPUSCULAR HEMOGLOBIN CONCENTRATION [1]: 39.77 G/DL
MEAN CORPUSCULAR VOLUME [1]: 62.65 fL
MONOCYTE [1]: 1.67%
NEUTROPHIL [1]: 11.83%
NUCLEATED RED BLOOD CELLS [1]: 0 /100WBC
PLATELET COUNT [1]: 1029 x10E3/uL
ALANINE AMINOTRANSFERASE [1]: 63.67 u/L
ALBUMIN [1]: 4.12 G/DL
ALKALINE PHOSPHATASE [1]: 329.83 u/L
ASPARTATE AMINOTRANSFERASE [1]: 77.67 u/L
BLOOD UREA NITROGEN [1]: 18 mg/dL
CARBON DIOXIDE [1]: 29.67 mmol/L
CHLORIDE [1]: 102.67 MEQ/L
CHOLESTEROL [1]: 64.5 mg/dL
CREATINE PHOSPHOKINASE [1]: 178.67 u/L
CREATININE [1]: 0.18 mg/dL
GLUCOSE [1]: 163.83 mg/dL
LACTATE DEHYDROGENASE [1]: 75.83 u/L
LIPASE [1]: 10 u/L
PHOSPHORUS [1]: 8.28 mg/dL
POTASSIUM [1]: 4.79 MEQ/L
SODIUM [1]: 142.22 MEQ/L
TOTAL BILIRUBIN [1]: 0.22 mg/dL
TOTAL PROTEIN [1]: 5.78 G/DL
URIC ACID [1]: 0.87 mg/dL
ABSOLUTE BASOPHIL [2]: 0 CELLS/uL
ABSOLUTE EOSINOPHIL [2]: 19 CELLS/uL
ABSOLUTE LYMPHOCYTE [2]: 7803.5 CELLS/uL
ABSOLUTE MONOCYTE [2]: 117.83 CELLS/uL
ABSOLUTE SEGMENTED NEUTROPHIL [2]: 1093 CELLS/uL
BASOPHIL [2]: 0%
EOSINOPHIL [2]: 0.17%
ERYTHROCYTE COUNT [2]: 5.84 x10E6/uL
HEMATOCRIT [2]: 35.75%
HEMOGLOBIN [2]: 13.87 G/DL
LEUKOCYTE COUNT [2]: 9.03 x10E3/uL
LYMPHOCYTE [2]: 87.17%
MEAN CORPUSCULAR HEMOGLOBIN [2]: 23.78 pg
MEAN CORPUSCULAR HEMOGLOBIN CONCENTRATION [2]: 38.8 G/DL
MEAN CORPUSCULAR VOLUME [2]: 61.25 fL
MONOCYTE [2]: 1.17%
NEUTROPHIL [2]: 11.5%
NUCLEATED RED BLOOD CELLS [2]: 0 /100WBC
PLATELET COUNT [2]: 1098.67 x10E3/uL
ALANINE AMINOTRANSFERASE [2]: 66 u/L
ALBUMIN [2]: 4.3 G/DL
ALKALINE PHOSPHATASE [2]: 291.83 u/L
ASPARTATE AMINOTRANSFERASE [2]: 80.5 u/L
BLOOD UREA NITROGEN [2]: 15.67 mg/dL
CARBON DIOXIDE [2]: 30 mmol/L
CHLORIDE [2]: 101.67 MEQ/L
CHOLESTEROL [2]: 69.67 mg/dL
CREATINE PHOSPHOKINASE [2]: 363.33 u/L
CREATININE [2]: 0.25 mg/dL
GLUCOSE [2]: 146.5 mg/dL
LACTATE DEHYDROGENASE [2]: 219.67 u/L
LIPASE [2]: 11.33 u/L
PHOSPHORUS [2]: 10.08 mg/dL
POTASSIUM [2]: 5.22 MEQ/L
SODIUM [2]: 144.67 MEQ/L
TOTAL BILIRUBIN [2]: 0.12 mg/dL
TOTAL PROTEIN [2]: 6.33 G/DL
URIC ACID [2]: 0.75 mg/dL
ABSOLUTE BASOPHIL [3]: 0 CELLS/uL
ABSOLUTE EOSINOPHIL [3]: 0 CELLS/uL
ABSOLUTE LYMPHOCYTE [3]: 6441.67 CELLS/uL
ABSOLUTE MONOCYTE [3]: 98 CELLS/uL
ABSOLUTE SEGMENTED NEUTROPHIL [3]: 743.67 CELLS/uL
BASOPHIL [3]: 0%
EOSINOPHIL [3]: 0%
ERYTHROCYTE COUNT [3]: 5.19 x10E6/uL
HEMATOCRIT [3]: 32.77%
HEMOGLOBIN [3]: 13.27 G/DL
LEUKOCYTE COUNT [3]: 7.28 x10E3/uL
LYMPHOCYTE [3]: 88.83%
MEAN CORPUSCULAR HEMOGLOBIN [3]: 25.65 pg
MEAN CORPUSCULAR HEMOGLOBIN CONCENTRATION [3]: 40.57 G/DL
MEAN CORPUSCULAR VOLUME [3]: 63.17 fL
MONOCYTE [3]: 1.33%
NEUTROPHIL [3]: 9.83%
NUCLEATED RED BLOOD CELLS [3]: 0 /100WBC
PLATELET COUNT [3]: 1091.67 x10E3/uL
ALANINE AMINOTRANSFERASE [3]: 69.83 u/L
ALBUMIN [3]: 4.22 G/DL
ALKALINE PHOSPHATASE [3]: 373.67 u/L
ASPARTATE AMINOTRANSFERASE [3]: 86 u/L
BLOOD UREA NITROGEN [3]: 16.5 mg/dL
CARBON DIOXIDE [3]: 30.17 mmol/L
CHLORIDE [3]: 101.83 MEQ/L
CHOLESTEROL [3]: 48.17 mg/dL
CREATINE PHOSPHOKINASE [3]: 463.67 u/L
CREATININE [3]: 0.14 mg/dL
GLUCOSE [3]: 170.83 mg/dL
LACTATE DEHYDROGENASE [3]: 85.33 u/L
LIPASE [3]: 9.67 u/L
PHOSPHORUS [3]: 8.43 mg/dL
POTASSIUM [3]: 5.04 MEQ/L
SODIUM [3]: 142.75 MEQ/L
TOTAL BILIRUBIN [3]: 0.18 mg/dL
TOTAL PROTEIN [3]: 5.87 G/DL
URIC ACID [3]: 0.93 mg/dL
